Species on record: Rattus norvegicus
Assay: Open TG-GATES - Regimen: Daily Repeat
Format: toxicity, organism-based, Sprague-Dawley
Set-up: regimen Daily Repeat, gender Male, age 6 weeks
Conditions: in vivo, po, 10 mg/kg, route gavage, dose level Low; for APTT / Bas / Eos / Fbg / Hb / Ht / Lym / MCH / MCHC / MCV / Mono / Neu / PT / Plat / RBC / Ret / WBC: tissue Blood
[1] = 72 h, tissue Kidney, time 3 day
[2] = 72 h, tissue Plasma, time 3 day

NC(=O)N/N=C/c1ccc([N+](=O)[O-])o1 [NITROFURAZONE]
TERMINAL_BW (72 h, time 3 day): 217.9 g
APTT (72 h, time 3 day): 14.6 s
Bas (72 h, time 3 day): 0.2%
Eos (72 h, time 3 day): 0.8%
Fbg (72 h, time 3 day): 265.6 mg/dL
Hb (72 h, time 3 day): 12.9 g/dL
Ht (72 h, time 3 day): 39.6%
Lym (72 h, time 3 day): 77.8%
MCH (72 h, time 3 day): 22.1 pg
MCHC (72 h, time 3 day): 32.6%
MCV (72 h, time 3 day): 67.8 fL
Mono (72 h, time 3 day): 3.2%
Neu (72 h, time 3 day): 17.8%
PT (72 h, time 3 day): 14.4 s
Plat (72 h, time 3 day): 118.7 x10_4/uL
RBC (72 h, time 3 day): 584.8 x10_4/ul
Ret (72 h, time 3 day): 9.3%
WBC (72 h, time 3 day): 97.1 x10_2/uL
KIDNEY_L [1]: 1 g
KIDNEY_R [1]: 1 g
KIDNEY_TOTAL [1]: 1.9 g
LIVER (72 h, tissue Liver, time 3 day): 10.7 g
A/G [2]: 0.9
ALP [2]: 1665.4 IU/L
ALT [2]: 49 IU/L
AST [2]: 74.6 IU/L
BUN [2]: 15 mg/dL
CRE [2]: 0.2 mg/dL
Ca [2]: 11.3 mg/dL
Cl [2]: 105.6 meq/L
DBIL [2]: 0.018 mg/dL
GLC [2]: 189 mg/dL
IP [2]: 7.9 mg/dL
K [2]: 4.3 meq/L
LDH [2]: 69.6 IU/L
Na [2]: 141.4 meq/L
PL [2]: 151.8 mg/dL
RALB [2]: 2.6 g/dL
TBIL [2]: 0.048 mg/dL
TC [2]: 85 mg/dL
TG [2]: 97.8 mg/dL
TP [2]: 5.5 g/dL
gamma-GTP [2]: 1 IU/L
TERMINAL_BW ([…], time 7 day): 257.3 g
TERMINAL_BW ([…], time 14 day): 318.7 g
TERMINAL_BW ([…], time 28 day): 442.9 g
APTT ([…], time 7 day): 16.7 s
Bas ([…], time 7 day): 0%
Eos ([…], time 7 day): 1%
Fbg ([…], time 7 day): 257 mg/dL
Hb ([…], time 7 day): 13.2 g/dL
Ht ([…], time 7 day): 39.3%
Lym ([…], time 7 day): 79.2%
MCH ([…], time 7 day): 21.5 pg
MCHC ([…], time 7 day): 33.7%
MCV ([…], time 7 day): 64 fL
Mono ([…], time 7 day): 2.4%
Neu ([…], time 7 day): 16.6%
PT ([…], time 7 day): 14.3 s
Plat ([…], time 7 day): 113.7 x10_4/uL
RBC ([…], time 7 day): 615 x10_4/ul
Ret ([…], time 7 day): 7.1%
WBC ([…], time 7 day): 83.6 x10_2/uL
APTT ([…], time 14 day): 15.2 s
Bas ([…], time 14 day): 0.2%
Eos ([…], time 14 day): 0.8%
Fbg ([…], time 14 day): 353 mg/dL
Hb ([…], time 14 day): 13.5 g/dL
Ht ([…], time 14 day): 40.9%
Lym ([…], time 14 day): 80%
MCH ([…], time 14 day): 20.2 pg
MCHC ([…], time 14 day): 33%
MCV ([…], time 14 day): 61.3 fL
Mono ([…], time 14 day): 2%
Neu ([…], time 14 day): 14.4%
PT ([…], time 14 day): 14.7 s
Plat ([…], time 14 day): 111.7 x10_4/uL
RBC ([…], time 14 day): 666.6 x10_4/ul
Ret ([…], time 14 day): 4.5%
WBC ([…], time 14 day): 106.9 x10_2/uL
APTT ([…], time 28 day): 16.4 s
Bas ([…], time 28 day): 0%
Eos ([…], time 28 day): 1.4%
Fbg ([…], time 28 day): 292.6 mg/dL
Hb ([…], time 28 day): 14.7 g/dL
Ht ([…], time 28 day): 43.8%
